The numbers were not newly measured in US20250082651A1, “GANAXOLONE FOR USE IN TREATING GENETIC EPILEPTIC DISORDERS” (Marinus Pharmaceuticals, Inc., priority 2017, published 2025), which cites them from elsewhere.

The conditions of series [1]: human plasma; cited from earlier work.
Series [2] concerns patients with CDKL5-related epilepsy. The following applies: CDKL5 deficiency disorder patients; cited from earlier work.

With `CC(=O)[C@H]1CC[C@H]2[C@@H]3CC[C@H]4C[C@H](O)CC[C@]4(C)[C@H]3CC[C@]12C` [Allopregnanolone, 3α,5α-tetrahydroprogesterone, reference compound], the Half-life result in series [1] is given as “about 45 minutes”.

For `CCCC(CCC)C(=O)O` [valproic acid], the “Responder rate at 12 months” value in series [2] was 9%.
